Like-named read-outs stand apart in the source and are kept apart here.
Legend:
[1] = tested on: HUH7 human HCC xenografts; type: in vivo; conditions: 21 days, HUH7 xenograft
Procedure: 12 days after the injection of tumor cells the tumor volumes are 138±24 mm^3.
Each group contains 8 animals. […] The application volumes in all experiments were 10 ml/kg.

[2] = tested on: PLC/PFR/5 human HCC xenografts; assay: PLC/PFR/5 human HCC subcutaneous xenograft in female nude mice; conditions: 24 days; for % T/C (ΔT/ΔC %, tumor volume): PLC/PFR/5 xenograft
[3] = tested on: HCC; conditions: HCC patients of Asia-Pacific region; cited from earlier work
[4] = tested on: unresectable HCC; conditions: 1st line treatment, patients with unresectable HCC; cited from earlier work
[5] = 50 mg/kg p.o. qd, statistically significant

| Structure (SMILES) | % T/C (ΔT/ΔC %, tumor volume) ([1]; 10 mg/kg p.o. qd) | % T/C (ΔT/ΔC %, tumor volume) ([1]; 30 mg/kg p.o. qd, statistically significant) | % T/C (ΔT/ΔC %, tumor volume) [1, 5] | % T/C (ΔT/ΔC %, tumor volume) ([2]; 10 mg/kg p.o. qd) | % T/C (ΔT/ΔC %, tumor volume) ([2]; 30 mg/kg p.o. qd) | % T/C (ΔT/ΔC %, tumor volume) [2, 5] | effect on body weight as compared to the vehicle-treated group ([2]; 10, 30 and 50 mg/kg p.o. qd) | median overall survival [3] | median overall survival [4] |
| --- | --- | --- | --- | --- | --- | --- | --- | --- | --- |
| CN1CCN(c2ccc3nc(-c4c(N)c5c(F)cccc5[nH]c4=O)[nH]c3c2)CC1 [Compound I, 4-amino-5-fluoro-3-[6-(4-methylpiperazin-1-yl)-1H-benzimidazol-2-yl]-1H-quinolin-2-one] | 75% | 40% | 20% | 67% | 47% | 19% | no significant effect on body weight |  |  |
| CNC(=O)c1cc(Oc2ccc(NC(=O)Nc3ccc(Cl)c(C(F)(F)F)c3)cc2)ccn1 [sorafenib] |  |  |  |  |  |  |  | 6.5 months | 10.7 months |

Source: patent publication US8741903B2, “Organic compound for use in the treatment of hepatocellular cancer (HCC)” (priority 2010, dated 2014)
